From US20050282159A1, “Rpob gene of streptomyces, primer specific to streptomyces, and identification method of streptomyces having rifampin resistance or sensitivity by using the same” (priority 2001, published 2005)

Columns and labels:
Assay in all cases: rifampin-sensitive test on Bennet solid media
Type in all cases: cell-based
Set-up in all cases: key: “(+)” indicates a genotype with rifampin-resistance; “(−)” indicates a genotype with rifampin-susceptibility
S. aculeolatus KCTC 9680 = details: AAC genotype, 25 ug/ml rifampin, 72 hr
Experimental: (§1) The 47 strains were respectively cultured at 28° C. for 72 hr in Bennet liquid media. The culture solution was then inoculated on Bennet solid media (yeast extract 1 g/L, Beef extract 1 g/L, Tryptone 2 g/L, Glycerol 10 g/L, Agar 15 g/L) containing 25 ug/ml rifampin, and after incubation for 72 hr, rifampin-resistance was tested.

S. avidinii KCTC 9757 = details: AAC genotype, 25 ug/ml rifampin, 72 hr
Experimental: as §1

[1] = test system: S. albireticuli KCTC 9685; details: TCG (TCC) genotype, 25 ug/ml rifampin, 72 hr
Experimental: as §1

S. plicatus KCTC 9040 = details: AAC genotype, 25 ug/ml rifampin, 72 hr
Experimental: as §1

[2] = test system: S. cinnamonensis KCTC 9708; details: TCG (TCC) genotype, 25 ug/ml rifampin, 72 hr
Experimental: as §1

[3] = test system: S. cacoi asoensis KCTC 9700; details: TCG (TCC) genotype, 25 ug/ml rifampin, 72 hr
Experimental: as §1

[4] = test system: S. alanosinicus KCTC 9683; details: AAC genotype, 25 ug/ml rifampin, 72 hr
Experimental: as §1

[5] = test system: S. celluloflavus KCTC 9702; details: TCG (TCC) genotype, 25 ug/ml rifampin, 72 hr
Experimental: as §1

[6] = test system: S. cinereoruber KCTC 9707; details: TCG (TCC) genotype, 25 ug/ml rifampin, 72 hr
Experimental: as §1

S. bikiniensis KCTC 9172 = details: TCG (TCC) genotype, 25 ug/ml rifampin, 72 hr
Experimental: as §1

[7] = test system: S. bambergiensis KCTC 9019; details: TCG (TCC) genotype, 25 ug/ml rifampin, 72 hr
Experimental: as §1

S. abikoensis KCTC 9662 = details: TCG (TCC) genotype, 25 ug/ml rifampin, 72 hr
Experimental: as §1

[8] = test system: S. capillispiralis KCTC 1719; details: AAC genotype, 25 ug/ml rifampin, 72 hr
Experimental: as §1

S. coelicolor KCTC 9005 = details: AAC genotype, 25 ug/ml rifampin, 72 hr
Experimental: as §1

S. flavofuscus KCTC 9737 = details: AAC genotype, 25 ug/ml rifampin, 72 hr
Experimental: as §1

[9] = test system: S. sclerotialus KCTC 9065; details: AAC genotype, 25 ug/ml rifampin, 72 hr
Experimental: as §1

S. albus KCTC 1082 = details: AAC genotype, 25 ug/ml rifampin, 72 hr
Experimental: as §1

[10] = test system: S. achromogenes KCTC 1740; details: TCG (TCC) genotype, 25 ug/ml rifampin, 72 hr
Experimental: as §1

S. almquistii KCTC 9751 = details: TCG (TCC) genotype, 25 ug/ml rifampin, 72 hr
Experimental: as §1

S. albofaciens KCTC 9747 = details: TCG (TCC) genotype, 25 ug/ml rifampin, 72 hr
Experimental: as §1

S. carpinensis KCTC 9128 = details: TCG (TCC) genotype, 25 ug/ml rifampin, 72 hr
Experimental: as §1

S. spectabilis KCTC 9218 = details: AAC genotype, 25 ug/ml rifampin, 72 hr
Experimental: as §1

S. armeniacus KCTC 9120 = details: AAC genotype, 25 ug/ml rifampin, 72 hr
Experimental: as §1

S. chartreuses KCTC 9704 = details: TCG (TCC) genotype, 25 ug/ml rifampin, 72 hr
Experimental: as §1

S. ederensis KCTC 9726 = details: AAC genotype, 25 ug/ml rifampin, 72 hr
Experimental: as §1

[11] = test system: S. albogriseolus KCTC 9773; details: AAC genotype, 25 ug/ml rifampin, 72 hr
Experimental: as §1

S. pulveraceus KCTC 9766 = details: AAC genotype, 25 ug/ml rifampin, 72 hr
Experimental: as §1

CO[C@H]1/C=C/O[C@@]2(C)Oc3c(C)c(O)c4c(O)c(c(/C=N/N5CCN(C)CC5)c(O)c4c3C2=O)NC(=O)/C(C)=C\C=C\[C@H](C)[C@H](O)[C@@H](C)[C@@H](O)[C@@H](C)[C@H](OC(C)=O)[C@@H]1C [rifampin]
genotype (rifampin-resistance or susceptibility) (S. aculeolatus KCTC 9680): + | genotype (rifampin-resistance or susceptibility) (S. avidinii KCTC 9757): + | genotype (rifampin-resistance or susceptibility) [1]: − | genotype (rifampin-resistance or susceptibility) (S. plicatus KCTC 9040): + | genotype (rifampin-resistance or susceptibility) [2]: − | genotype (rifampin-resistance or susceptibility) [3]: − | genotype (rifampin-resistance or susceptibility) [4]: + | genotype (rifampin-resistance or susceptibility) [5]: − | genotype (rifampin-resistance or susceptibility) [6]: − | genotype (rifampin-resistance or susceptibility) (S. bikiniensis KCTC 9172): − | genotype (rifampin-resistance or susceptibility) [7]: − | genotype (rifampin-resistance or susceptibility) (S. abikoensis KCTC 9662): − | genotype (rifampin-resistance or susceptibility) [8]: + | genotype (rifampin-resistance or susceptibility) (S. coelicolor KCTC 9005): + | genotype (rifampin-resistance or susceptibility) (S. flavofuscus KCTC 9737): + | genotype (rifampin-resistance or susceptibility) [9]: + | genotype (rifampin-resistance or susceptibility) (S. albus KCTC 1082): + | genotype (rifampin-resistance or susceptibility) [10]: − | genotype (rifampin-resistance or susceptibility) (S. almquistii KCTC 9751): − | genotype (rifampin-resistance or susceptibility) (S. albofaciens KCTC 9747): − | genotype (rifampin-resistance or susceptibility) (S. carpinensis KCTC 9128): − | genotype (rifampin-resistance or susceptibility) (S. spectabilis KCTC 9218): + | genotype (rifampin-resistance or susceptibility) (S. armeniacus KCTC 9120): + | genotype (rifampin-resistance or susceptibility) (S. chartreuses KCTC 9704): − | genotype (rifampin-resistance or susceptibility) (S. ederensis KCTC 9726): + | genotype (rifampin-resistance or susceptibility) [11]: + | genotype (rifampin-resistance or susceptibility) (S. pulveraceus KCTC 9766): +
